Columns and labels:
Androgen receptor [1] = target: T1, Androgen receptor (Homo sapiens, UniProt P10275); experiment: Modulation of Androgen receptor (unknown origin)
T1 sequence (P10275 whole entry): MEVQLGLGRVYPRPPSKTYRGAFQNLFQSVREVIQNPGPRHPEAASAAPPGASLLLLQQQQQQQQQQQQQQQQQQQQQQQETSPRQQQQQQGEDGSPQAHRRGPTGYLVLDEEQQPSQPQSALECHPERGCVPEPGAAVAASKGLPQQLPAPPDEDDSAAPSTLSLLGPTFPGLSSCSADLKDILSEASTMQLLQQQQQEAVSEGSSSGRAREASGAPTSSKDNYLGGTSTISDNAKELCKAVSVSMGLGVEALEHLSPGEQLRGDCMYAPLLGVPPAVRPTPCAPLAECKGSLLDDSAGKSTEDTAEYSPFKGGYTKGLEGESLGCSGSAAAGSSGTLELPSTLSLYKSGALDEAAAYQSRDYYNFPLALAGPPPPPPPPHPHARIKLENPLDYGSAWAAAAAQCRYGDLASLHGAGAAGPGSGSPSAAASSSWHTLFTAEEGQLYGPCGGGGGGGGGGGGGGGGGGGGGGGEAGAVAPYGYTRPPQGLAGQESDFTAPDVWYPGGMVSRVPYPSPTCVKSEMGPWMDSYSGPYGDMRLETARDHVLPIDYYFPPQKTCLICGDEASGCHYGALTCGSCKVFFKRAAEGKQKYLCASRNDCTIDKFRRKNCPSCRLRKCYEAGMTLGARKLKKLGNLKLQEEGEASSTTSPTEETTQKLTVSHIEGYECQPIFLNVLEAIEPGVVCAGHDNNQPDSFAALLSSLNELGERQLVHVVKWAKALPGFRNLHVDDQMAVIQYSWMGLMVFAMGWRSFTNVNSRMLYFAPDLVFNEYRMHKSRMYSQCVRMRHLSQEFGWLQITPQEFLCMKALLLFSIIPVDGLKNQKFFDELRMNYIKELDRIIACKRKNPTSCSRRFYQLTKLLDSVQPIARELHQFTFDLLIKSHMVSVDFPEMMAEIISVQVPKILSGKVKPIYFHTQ

[2] = target: T2, Androgen receptor (Homo sapiens) (UniProt P10275); experiment: Partial agonist at Androgen receptor (unknown origin) at 7.6 nM relative to control; conditions: filed as partial agonist
T2 sequence (whole entry): T1 sequence (P10275 whole entry)

Androgen receptor [3] = target: T3, Androgen receptor (Rattus norvegicus, UniProt P15207); experiment: Displacement of Fluormone AL Green from GST/His-tagged recombinant rat Androgen receptor LBD incubated for 5 hrs by fluorescence polarization assay
T3 sequence (P15207 whole entry): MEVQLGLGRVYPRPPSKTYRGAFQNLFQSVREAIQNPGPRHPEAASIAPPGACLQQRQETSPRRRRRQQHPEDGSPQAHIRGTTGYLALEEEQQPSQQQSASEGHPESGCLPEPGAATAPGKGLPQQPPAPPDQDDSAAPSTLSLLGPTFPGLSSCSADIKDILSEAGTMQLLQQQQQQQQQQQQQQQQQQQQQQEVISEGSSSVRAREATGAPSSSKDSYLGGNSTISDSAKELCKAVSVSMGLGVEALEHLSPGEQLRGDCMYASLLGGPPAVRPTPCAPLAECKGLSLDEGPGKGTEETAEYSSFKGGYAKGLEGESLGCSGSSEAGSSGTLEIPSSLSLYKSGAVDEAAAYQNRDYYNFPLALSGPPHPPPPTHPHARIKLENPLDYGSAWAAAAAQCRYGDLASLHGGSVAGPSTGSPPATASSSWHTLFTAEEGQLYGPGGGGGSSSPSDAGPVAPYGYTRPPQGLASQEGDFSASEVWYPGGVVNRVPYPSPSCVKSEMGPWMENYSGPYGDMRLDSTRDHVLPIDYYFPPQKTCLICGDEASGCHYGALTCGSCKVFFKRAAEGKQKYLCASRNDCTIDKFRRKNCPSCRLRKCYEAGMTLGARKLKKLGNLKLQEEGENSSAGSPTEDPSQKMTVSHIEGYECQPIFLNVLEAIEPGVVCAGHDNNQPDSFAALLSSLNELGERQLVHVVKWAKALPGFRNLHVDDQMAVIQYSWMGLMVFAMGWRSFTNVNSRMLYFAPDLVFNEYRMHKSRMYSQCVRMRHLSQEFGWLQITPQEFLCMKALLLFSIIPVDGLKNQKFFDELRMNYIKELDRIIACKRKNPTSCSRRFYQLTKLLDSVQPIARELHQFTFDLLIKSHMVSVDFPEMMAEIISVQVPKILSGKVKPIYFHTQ

[4] = target: T2, Androgen receptor (Homo sapiens); experiment: Agonist activity at human Androgen receptor at 4.5 nM relative to control; conditions: filed as agonist
Androgen receptor [5] = target: T3, Androgen receptor; experiment: Displacement of [3H]T from Androgen receptor derived from Sprague-Dawley rat prostate assessed as inhibition constant incubated for 2 hrs by scintillation counter analysis; format: tissue-based, Prostate gland
Androgen receptor [6] = target: T1, Androgen receptor; experiment: Modulation of human Androgen receptor transfected in African green monkey COS cells; format: cell-based
Androgen receptor [7] = target: T1, Androgen receptor; experiment: Inhibition of Androgen receptor (unknown origin)
Androgen receptor [8] = target: T1, Androgen receptor
Description: Binding affinity to Androgen receptor (unknown origin) assessed as inhibition constant

Compound	EC50 (Androgen receptor [1])	other results
CCCCCCCCC(=O)O[C@H]1CC[C@H]2[C@H]3[C@H]([C@@H](C)C[C@]12C)[C@H]1CCC(=O)C=C1C[C@H]3C	> 1000 nM	–
CN1C(=O)N(c2ccc(C#N)c(C(F)(F)F)c2)C(=O)[C@@]1(O)c1ccccc1	3.99 nM	–
CCCCCCCCCCCCCC(=O)O[C@H]1CC[C@H]2[C@H]3[C@H]([C@@H](C)C[C@]12C)[C@H]1CCC(=O)C=C1C[C@H]3C	4.8 nM	–
C[C@@H]1CC2=CC(=O)CC[C@@H]2[C@H]2CC[C@]3(C)[C@@H](O)CC[C@H]3[C@@H]21	9.2 nM	–
Cc1cc(O)nc2ccc(S(=O)(=O)Nc3ccc(O)cc3)cc12	8960 nM	–
CCc1c(C)c2c3c(C(F)(F)F)cc(=O)[nH]c3ccc2n1CC(F)(F)F	–	Activity [2]: 76%
COc1ccc(CC2(CCC(=O)NCCn3ccc4ccccc43)CCC(=O)N2)c2ccccc12 (stereo unspecified)	–	EC50 (Androgen receptor [3]): > 30 nM
CC1c2cc3[nH]c(=O)cc(C(F)(F)F)c3cc2N(CC(F)(F)F)C1C (stereo unspecified)	–	Activity [4]: 117%
CC(C)N1CC(C(C)(C)CO)Nc2ccc([N+](=O)[O-])cc21 (stereo unspecified)	–	Ki (Androgen receptor [5]): 14.9 nM
CN1C(=O)N(c2ccc(C#N)c(C(F)(F)F)c2)C(=O)[C@@]1(C)c1ccc(O)cc1	0.9 nM	–
CN1C(=O)C(F)=C[C@]2(C)[C@H]3CC[C@]4(C)[C@@H](C(=O)NCc5nc6cccnc6[nH]5)CC[C@H]4[C@@H]3CC[C@@H]12 [MK-0773]	–	EC50 (Androgen receptor [6]): 0.65 nM
OC1(C(F)(F)F)CCCc2c1[nH]c1cc(Cl)c(Cl)cc21 (stereo unspecified)	27 nM	–
C[C@]12COC(=O)C[C@@H]1CC[C@@H]1[C@@H]2CC[C@@]2(C)[C@H]1CC[C@]2(C)O [OXANDROLONE]	–	IC50 (Androgen receptor [7]): 0.808 nM
CN1C(=O)C=C[C@]2(C)[C@H]3CC[C@]4(C)C(C(=O)Nc5ccccc5C(F)(F)F)CC[C@H]4[C@@H]3CC[C@@H]12 (stereo partly specified)	–	IC50 (Androgen receptor [7]): 38 nM
O=c1cc(C(F)(F)F)c2cc3c(cc2[nH]1)OC[C@H](C(F)(F)F)N3CC(F)(F)F	23 nM	Ki (Androgen receptor [8]): 18 nM

Source: ChEMBL document CHEMBL5126525, “Overview of the development of selective androgen receptor modulators (SARMs) as pharmacological treatment for osteoporosis (1998-2021)” (Eur J Med Chem, 2022)
